Measurements reported in ChEMBL document CHEMBL1143809, “New bis-N9-(methylphenylmethyl)purine derivatives: synthesis and antitumor activity” (2007).

Experiments:
Assay type in all cases: functional
[1] = tested on: SF-268; assay: Anticancer activity against human SF268 cells assessed as growth at 100 uM after 48 hrs by SRB protein assay relative to control; details: SF-268, 48 h, read-out: Activity
[2] = tested on: T47D; assay: Growth inhibition of human T47D cells after 48 hrs by SRB protein assay
[3] = tested on: NCI/ADR-RES; assay: Growth inhibition of human NCI/ADR-RES cells after 48 hrs by SRB protein assay
[4] = tested on: OVCAR-8; assay: Growth inhibition of human OVCAR8 cells after 48 hrs by SRB protein assay; details: OVCAR-8, 48 h
[5] = Growth inhibition of human NCL-H322M cells after 48 hrs by SRB protein assay
[6] = tested on: MDA-MB-231; assay: Growth inhibition of human MDA-MB-231 cells after 48 hrs by SRB protein assay; details: MDA-MB-231, 48 h
[7] = tested on: MDA-MB-435; assay: Growth inhibition of human MDA-MB-435 cells after 48 hrs by SRB protein assay; details: MDA-MB-435, 48 h
[8] = tested on: UACC-257; assay: Growth inhibition of human UACC257 cells after 48 hrs by SRB protein assay; details: UACC-257, 48 h
[9] = tested on: 786-0; assay: Growth inhibition of human 786-0 cells after 48 hrs by SRB protein assay; details: 786-0, 48 h
[10] = tested on: HCT-116; assay: Growth inhibition of human HCT116 cells after 48 hrs by SRB protein assay; details: HCT-116, 48 h
[11] = tested on: KM12; assay: Growth inhibition of human KM12 cells after 48 hrs by SRB protein assay; details: KM12, 48 h
[12] = tested on: MCF7; assay: Anticancer activity against human MCF7 cells assessed as growth at 100 uM after 48 hrs by SRB protein assay relative to control; details: MCF7, 48 h, read-out: Activity
[13] = tested on: EKVX; assay: Growth inhibition of human EKVX cells after 48 hrs by SRB protein assay
[14] = tested on: UO-31; assay: Growth inhibition of human UO31 cells after 48 hrs by SRB protein assay; details: UO-31, 48 h
[15] = tested on: MCF7; assay: Growth inhibition of human MCF7 cells after 48 hrs by SRB protein assay; details: MCF7, 48 h
[16] = tested on: TK-10; assay: Growth inhibition of human TK10 cells after 48 hrs by SRB protein assay; details: TK-10, 48 h
[17] = tested on: U-251; assay: Growth inhibition of human U251 cells after 48 hrs by SRB protein assay; details: U-251, 48 h
[18] = tested on: OVCAR-3; assay: Growth inhibition of human OVCAR-3 cells after 48 hrs by SRB protein assay; details: OVCAR-3, 48 h
[19] = tested on: NCI-H460; assay: Anticancer activity against human NCL-H460 cells assessed as growth at 100 uM after 48 hrs by SRB protein assay relative to control; details: NCI-H460, 48 h, read-out: Activity
[20] = tested on: OVCAR-5; assay: Growth inhibition of human OVCAR5 cells after 48 hrs by SRB protein assay; details: OVCAR-5, 48 h
[21] = tested on: HT-29; assay: Growth inhibition of human HT29 cells after 48 hrs by SRB protein assay; details: HT-29, 48 h
[22] = tested on: SF-539; assay: Growth inhibition of human SF539 cells after 48 hrs by SRB protein assay; details: SF-539, 48 h
[23] = tested on: OVCAR-4; assay: Growth inhibition of human OVCAR4 cells after 48 hrs by SRB protein assay; details: OVCAR-4, 48 h
[24] = tested on: DU-145; assay: Growth inhibition of human DU145 cells after 48 hrs by SRB protein assay; details: DU-145, 48 h
[25] = tested on: SK-MEL-28; assay: Growth inhibition of human SK-MEL-28 cells after 48 hrs by SRB protein assay; details: SK-MEL-28, 48 h
[26] = tested on: Hs-578T; assay: Growth inhibition of human HS578T cells after 48 hrs by SRB protein assay
[27] = tested on: SF-295; assay: Growth inhibition of human SF295 cells after 48 hrs by SRB protein assay; details: SF-295, 48 h
[28] = tested on: SW-620; assay: Growth inhibition of human SW620 cells after 48 hrs by SRB protein assay; details: SW-620, 48 h
[29] = tested on: SK-MEL-2; assay: Growth inhibition of human SK-MEL-2 cells after 48 hrs by SRB protein assay; details: SK-MEL-2, 48 h
[30] = tested on: IGROV-1; assay: Growth inhibition of human IGROV1 cells after 48 hrs by SRB protein assay; details: IGROV-1, 48 h
[31] = tested on: SN12C; assay: Growth inhibition of human SN12C cells after 48 hrs by SRB protein assay
[32] = tested on: SNB-75; assay: Growth inhibition of human SNB75 cells after 48 hrs by SRB protein assay; details: SNB-75, 48 h
[33] = tested on: CAKI-1; assay: Growth inhibition of human CAKI1 cells after 48 hrs by SRB protein assay; details: CAKI-1, 48 h
[34] = read-out: LC50 (the source's name)

With `Clc1nc(Cl)c2ncn(Cc3ccccc3Cn3cnc4c(Cl)nc(Cl)nc43)c2n1` the growth at 100 µM [1] was 0%, the GI50 [2] was 2.19 µM and the LC50 [2] was > 100 µM. It also gave a TGI [2] of 5.89 µM, a GI50 [3] of 20.4 µM and an LC50 [3] of 91.2 µM. It also gave a TGI [3] of 43.6 µM, a GI50 [4] of 3.02 µM and an LC50 [4] of 49 µM. It also gave a TGI [4] of 8.13 µM, a GI50 [5] of 14.5 µM and a TGI [5] of 27.5 µM. The CC50 [5, 34] was 52.5 µM, the GI50 [6] was 1.82 µM and the LC50 (50% lethal concentration) [6] was 6.46 µM. For the same compound, the TGI [6] was 3.39 µM, the GI50 [7] was 2.4 µM and the LC50 [7] was 17.4 µM. It also gave a TGI [7] of 5.5 µM, a GI50 [8] of 7.94 µM and a TGI [8] of 23.4 µM. For the same compound, the CC50 [8, 34] was 61.7 µM, the GI50 [9] was 10 µM and the TGI [9] was 25.1 µM. The CC50 [9, 34] was 63.1 µM, the GI50 [10] was 3.31 µM and the TGI [10] was 13.8 µM. The CC50 [10, 34] was > 100 µM, the GI50 [11] was 3.31 µM and the LC50 (concentration killing 50% of cells) [11] was 34.7 µM. The TGI [11] was 10 µM, the growth at 100 µM [12] was 0% and the GI50 [13] was 1.02 µM. For the same compound, the LC50 [13] was 6.76 µM, the TGI [13] was 2.63 µM and the GI50 [14] was 1.95 µM. It also gave an LC50 [14] of 7.41 µM, a TGI [14] of 3.8 µM and a GI50 [15] of 1.55 µM. For the same compound, the LC50 [15] was > 100 µM, the TGI [15] was 4.57 µM and the GI50 [16] was 2.69 µM. For the same compound, the LC50 (50% lethal concentration) [16] was 28.8 µM, the TGI [16] was 7.94 µM and the GI50 [17] was 1.78 µM. The TGI [17] was 3.55 µM, the CC50 [17, 34] was 69.2 µM and the GI50 [18] was 1.66 µM. The LC50 [18] was 5.5 µM, the TGI [18] was 3.02 µM and the growth at 100 µM [19] was 0%. The GI50 [20] was 20.9 µM, the TGI [20] was 38 µM and the CC50 [20, 34] was 70.8 µM. For the same compound, the GI50 [21] was 3.31 µM, the LC50 [21] was > 100 µM and the TGI [21] was > 100 µM. It also gave an LC50 [22] of 0.49 µM, a TGI [22] of 0.14 µM and a GI50 [23] of 2.09 µM. The LC50 [23] was 8.71 µM, the TGI [23] was 4.23 µM and the GI50 [24] was 1 µM. The TGI [24] was 2.51 µM, the CC50 [24, 34] was 6.46 µM and the GI50 [25] was 3.98 µM. For the same compound, the LC50 [25] was > 100 µM, the TGI [25] was 24.6 µM and the GI50 [26] was 3.09 µM. For the same compound, the LC50 (concentration killing 50% of cells) [26] was > 100 µM, the TGI [26] was 11.2 µM and the GI50 [27] was 15.1 µM. The LC50 [27] was 57.3 µM, the TGI [27] was 28.2 µM and the GI50 [28] was 1.86 µM. The TGI [28] was 3.98 µM, the CC50 [28, 34] was 8.32 µM and the GI50 [29] was 6.31 µM. For the same compound, the TGI [29] was 26.9 µM, the CC50 [29, 34] was > 100 µM and the GI50 [30] was 5.25 µM. The LC50 (50% lethal concentration) [30] was 57.5 µM, the TGI [30] was 17.8 µM and the GI50 [31] was 2.51 µM. The LC50 [31] was 26.9 µM, the TGI [31] was 6.61 µM and the GI50 [32] was 5.13 µM. For the same compound, the TGI [32] was 21.9 µM, the CC50 [32, 34] was 81.3 µM and the GI50 [33] was 1.73 µM. The TGI [33] was 3.09 µM and the CC50 [33, 34] was 5.62 µM.
